Each molecule was assayed against T1, Corticotropin-releasing factor receptor 1 (Homo sapiens, UniProt P34998) (assay: Displacement of [125I]sauvagine from human recombinant CRF1 receptor expressed in CHO cells by SPA).
T1 sequence (P34998 whole entry): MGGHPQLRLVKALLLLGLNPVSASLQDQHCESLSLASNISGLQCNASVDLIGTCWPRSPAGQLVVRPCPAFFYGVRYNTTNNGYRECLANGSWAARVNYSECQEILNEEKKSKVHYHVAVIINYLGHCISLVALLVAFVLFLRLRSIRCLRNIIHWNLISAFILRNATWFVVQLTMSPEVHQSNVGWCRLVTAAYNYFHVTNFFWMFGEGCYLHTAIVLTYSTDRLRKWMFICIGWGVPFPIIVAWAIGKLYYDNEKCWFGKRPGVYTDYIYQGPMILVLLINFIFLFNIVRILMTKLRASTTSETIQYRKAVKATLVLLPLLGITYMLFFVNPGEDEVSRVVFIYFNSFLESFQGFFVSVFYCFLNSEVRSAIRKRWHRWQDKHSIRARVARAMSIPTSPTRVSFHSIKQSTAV
Type: cell-based

IC50 [nM] | Structure (SMILES)
60.3 | COc1ccc(N2CCc3c(-n4ccc(-c5nccs5)n4)cc(C)nc32)c(C)n1
8710 | COc1ccc(N2CCc3c(-n4ccc(-c5nccs5)n4)cc(C)nc32)cc1
> 10000 | Cc1cc(-n2ccc(-c3nccs3)n2)c2nc(C)n(-c3ccc(C(F)(F)F)cc3C(F)(F)F)c2n1
257 | Cc1cc(-n2ccc(-c3nccs3)n2)c2c(n1)N(c1cnc(N(C)C)cc1C)CC2
214 | COc1ccc(N2CCc3c(-n4ccc(-c5nccs5)n4)cc(C)nc32)c(OC)n1
3470 | Cc1cc(-n2ccc(-c3nccs3)n2)c2c(n1)N(c1ccc(O)cc1C)CC2
93.3 | Cc1cc(-n2ccc(-c3ccccn3)n2)c2c(n1)N(c1ccc(C#N)cc1C(F)(F)F)CC2
126 | CCc1cc(C#N)ccc1N1CCc2c(-n3ccc(-c4nccs4)n3)cc(C)nc21
2340 | Cc1cc(-n2ccc(-c3nccs3)n2)c2c(n1)N(c1ccc(S(C)(=O)=O)cc1Cl)CC2
27.5 | Cc1cc(-n2ccc(-c3nccs3)n2)c2c(n1)N(c1ccc(C(F)(F)F)cc1C(F)(F)F)CC2
363 | Cc1cc(-n2ccc(-c3ccccn3)n2)c2c(n1)N(c1ccc(C#N)cc1Cl)CC2
115 | Cc1cc(-n2ccc(-n3cccn3)n2)c2c(n1)N(c1ccc(C#N)cc1Cl)CC2
8320 | Cc1cc(-n2ccc(-c3nccs3)n2)c2[nH]c(=O)n(-c3ccc(C(F)(F)F)cc3C(F)(F)F)c2n1
> 10000 | Cc1cc(-n2ccc(-c3nccs3)n2)c2nc(C(F)(F)F)n(-c3ccc(C(F)(F)F)cc3C(F)(F)F)c2n1
3890 | Cc1cc(-n2ccc(-c3nccs3)n2)c2c(n1)N(c1ccc(S(C)(=O)=O)cc1S(C)(=O)=O)CC2
229 | Cc1cc(-n2ccc(-c3nccs3)n2)c2c(n1)N(c1ccc(C#N)cc1Cl)CC2
316 | Cc1cc(-n2ccc(-n3cccn3)n2)c2c(n1)N(c1ccc(C#N)cc1C)CC2
2750 | Cc1cc(-n2ccc(-c3nccs3)n2)c2cnn(-c3ccc(C#N)cc3C)c2n1

IC50 [nM] | Structure (SMILES)
851 | Cc1cc(-n2ccc(-c3nccs3)n2)c2c(n1)N(c1ccc(C#N)cc1-c1cccs1)CC2
53.7 | COc1ccc(N2CCc3c(-n4ccc(-c5nccs5)n4)cc(C)nc32)c(C)c1
34.7 | COc1ccc(N2CCc3c(-n4ccc(-c5nccs5)n4)cc(C)nc32)c(C(F)F)c1
224 | Cc1cc(-n2ccc(-c3ccccn3)n2)c2c(n1)N(c1ccc(C#N)cc1C)CC2
56.2 | COc1ccc(N2CCc3c(-n4ccc(-c5nccs5)n4)cc(C)nc32)c(Cl)c1
58.9 | Cc1cc(-n2ccc(-c3nccs3)n2)c2c(n1)N(c1ccc([N+](=O)[O-])cc1C(F)(F)F)CC2
174 | COc1ccc(N2CCc3c(-n4ccc(-c5nccs5)n4)cc(C)nc32)c(OC)c1
162 | Cc1cc(-n2ccc(-c3nccs3)n2)c2c(n1)N(c1ccc(F)cc1C)CC2
145 | Cc1cc(-n2ccc(-n3cccn3)n2)c2c(n1)N(c1ccc(C#N)cc1C(F)(F)F)CC2
7410 | Cc1cc(-n2ccc(-c3nccs3)n2)c2c(n1)N(c1ccc(C#N)cc1C#N)CC2
2040 | Cc1cc(-n2ccc(-c3nccs3)n2)c2c(n1)N(c1ccc(C#N)cc1F)CC2
> 10000 | Cc1cc(-n2ccc(-c3nccs3)n2)c2c(n1)N(c1ccc(F)cc1[N+](=O)[O-])CC2
> 10000 | Cc1cc(-n2ccc(-c3nccs3)n2)c2c(n1)N(c1ccc(C(F)(F)F)cc1C(F)(F)F)S(=O)(=O)C2
> 10000 | COc1ccc2c(c1)CCN2c1cc(-n2ccc(-c3nccs3)n2)cc(C)n1
427 | COc1ccc(-n2ccc3c(-n4ccc(-c5nccs5)n4)cc(C)nc32)c(C)c1
> 10000 | Cc1cc(-n2ccc(-c3nccs3)n2)c2c(n1)N(c1ccc(Cl)cc1[N+](=O)[O-])CC2
> 10000 | COc1ccc(N2CCc3c(-n4ccc(-c5nccs5)n4)cc(C)nc32)c([N+](=O)[O-])c1
